Assay results from PMC7987348, “Structural basis for human TRPC5 channel inhibition by two distinct inhibitors” (eLife, 2021).

Experiments:
[1] = tested on: TRPC7; set-up: method as in Richter et al., 2014; details: ref Richter et al., 2014; cited from earlier work
[2] = tested on: TRPC5; set-up: method as in Richter et al., 2014; Zhou et al., 2017; Zhu et al., 2015; details: ref Richter et al., 2014; Zhou et al., 2017; Zhu et al., 2015; read-out: IC50 for inhibition of TRPC5; cited from earlier work
[3] = target: T1, hTRPC5_1-764 (Homo sapiens, UniProt Q9UL62); test: FLIPR calcium assay, C-terminally truncated construct hTRPC5_1-764; details: 14 mM extracellular calcium; AD293 cells
T1 sequence (Q9UL62 1-764): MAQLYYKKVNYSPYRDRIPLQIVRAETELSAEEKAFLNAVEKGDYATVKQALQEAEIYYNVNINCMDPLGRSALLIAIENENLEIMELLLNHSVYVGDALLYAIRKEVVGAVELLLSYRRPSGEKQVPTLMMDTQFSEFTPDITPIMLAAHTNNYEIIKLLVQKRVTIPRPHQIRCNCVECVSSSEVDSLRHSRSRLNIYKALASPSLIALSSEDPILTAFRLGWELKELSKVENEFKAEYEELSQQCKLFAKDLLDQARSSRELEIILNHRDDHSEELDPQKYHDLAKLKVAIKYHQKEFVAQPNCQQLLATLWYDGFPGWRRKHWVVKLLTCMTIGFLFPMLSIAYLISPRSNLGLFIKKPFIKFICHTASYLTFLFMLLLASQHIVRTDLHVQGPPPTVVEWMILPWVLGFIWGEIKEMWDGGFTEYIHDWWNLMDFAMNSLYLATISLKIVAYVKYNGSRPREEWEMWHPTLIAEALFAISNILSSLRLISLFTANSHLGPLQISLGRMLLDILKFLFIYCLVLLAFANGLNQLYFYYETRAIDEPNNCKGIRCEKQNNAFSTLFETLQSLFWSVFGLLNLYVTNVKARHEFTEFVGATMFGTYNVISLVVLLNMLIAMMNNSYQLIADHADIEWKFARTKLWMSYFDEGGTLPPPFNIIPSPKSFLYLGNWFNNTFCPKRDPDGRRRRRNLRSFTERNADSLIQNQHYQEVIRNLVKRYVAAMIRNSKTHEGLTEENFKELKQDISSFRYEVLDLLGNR

SMILES: Clc1ccc(Cn2c(CN3CCCC3)nc3ccccc32)cc1 [CMZ, clemizole]
- fold more potent against TRPC5 than TRPC7 [1]: 26 fold
- IC50 [2]: 1 to 1.3 µM
- inhibition of hTRPC5_1-764 [3]: can be inhibited
